Patent US20070213305A1, “N-alkyl-N-aryl-thienopyrimidin-4-amines and analogs as activators of caspases and inducers of apoptosis and the use thereof” (Cytovia, Inc., priority 2005, published 2007)
Read-outs that look alike come from different tables or passages of the source.

Assays:
[1] = system: MX-1 cells; experiment: Inhibition of cell proliferation (GI50, CellTiter-Glo) in MX-1 cells; type: cell-based; conditions: MX1, 48 h incubation, read-out: GI50 in Cancer Cells GI50 (nM) MX1
Method: (§1) T-47D, HT29, H1299, MX-1 and MDAMB435 cells were grown and harvested as in Example 29. An aliquot of 90 μL of cells (4.4×10^4 cells/mL) was added to a well of a 96-well microtiter plate containing 5 μL of a 10% DMSO in RPMI-1640 media solution containing 10 nM to 100 μM of N-(4-methoxyphenyl)-N,2-dimethylthieno[2,3-d]pyrimidin-4-amine (1 nM to 10 μM final) or related compounds. An aliquot of […] of cells was added to a well of a 96-well microtiter plate containing 5 μL of a 10% DMSO in RPMI-1640 media solution without compound as the control sample for maximal cell proliferation (LMax). The samples were mixed by agitation and then incubated at 37° C. for 48 h in a 5% CO2-95% humidity incubator. After incubation, the samples were removed from the incubator and 25 μL of CellTiter-Glo™ reagent (Promega) was added. The samples were mixed by agitation and incubated at room temperature for 10-15 min. Plates were then read using a luminescent plate reader (Model SPECTRAfluor Plus, Tecan) to give Ltest values.
(§2) The samples were mixed by agitation and then incubated at 37° C. for 0.5 h in a 5% CO2-95% humidity incubator. After incubation, the samples were removed from the incubator and 25 μL of CellTiter-Glo™ reagent (Promega) was added. The samples were mixed by agitation and incubated at […] room temperature in a 5% CO2-95% humidity incubator. […] was read as above, (Lstart) defining luminescence for initial cell number used as baseline in GI50 determinations. ps Calculation:
(§3) GI50 (dose for 50% inhibition of cell proliferation) is the concentration where [(LTest-LStart)/(LMax-LStart)]=0.5.

[2] = system: MDAMB435 cells; experiment: Inhibition of cell proliferation (GI50, CellTiter-Glo) in MDAMB435 cells; type: cell-based; conditions: MDAMB435, 48 h incubation, read-out: GI50 in Cancer Cells GI50 (nM) MDAMB435
Method: as §1, §2, §3

[3] = system: H1299 cells; experiment: Inhibition of cell proliferation (GI50, CellTiter-Glo) in H1299 cells; type: cell-based, human; conditions: H1299, 48 h incubation, read-out: GI50 in Cancer Cells GI50 (nM) H1299
Method: as §1, §2, §3

[4] = system: human breast cancer cell line T-47D; experiment: Caspase cascade activation (DEVD-R110 fluorogenic substrate) in T-47D cells; type: cell-based; conditions: 24 h, read-out: Caspase Activation Potency EC50 (nM) (24 h) T-47D
Method: (§4) Human breast cancer cell line T-47D, human lung cancer cell line H1299 and human hepatocellular carcinoma cell line SNU398 were grown according to media component mixtures designated by American Type Culture Collection+10% FCS (Invitrogen Corporation), in a 5% CO2-95% humidity incubator at 37° C. T-47D and H1299 cells were maintained at a cell density between 50 and 80% confluency at a cell density of 0.1 to 0.6×10^6 cells/mL. Cells were harvested at 600×g and resuspended at 0.65×10^6 cells/mL into appropriate media+10% FCS. An aliquot of 22.5 μL of cells was added to a well of a 384-well microtiter plate containing 2.5 μL of a 10% DMSO in RPMI-1640 media solution containing 0.16 to 100 μM of N-(4-methoxyphenyl)-N, 2-dimethylthieno[3,2-d]pyrimidin-4-amine or other test compound (0.016 to 10 μM final). An aliquot of 22.5 μL of cells was added to a well of a 384-well microtiter plate containing 2.5 μL of a 10 % DMSO in RPMI-1640 media solution without test compound as the control sample. The samples were mixed by agitation and then incubated at 37° C. for 24 h or 48 h in a 5% CO2-95% humidity incubator. After incubation, the samples were removed from the incubator and 25 μL of a solution containing 14 μM of N-(Ac-DEVD)-N′-ethoxycarbonyl-R110 (SEQ ID No.:1) fluorogenic substrate (Cytovia, Inc.; WO99/18856), 20% sucrose (Sigma), 20 mM DTT (Sigma), 200 mM NaCI (Sigma), 40 mM Na PIPES buffer pH 7.2 (Sigma), and 500 μg/mL lysolecithin (Calbiochem) was added. The samples were mixed by agitation and incubated at room temperature. Using a fluorescent plate reader (Model SPECTRAfluor Plus, Tecan), an initial reading (T=0) was made approximately 1-2 min after addition of the substrate solution, employing excitation at 485 nm and emission at 530 nm, to determine the background fluorescence of the control sample. After the 3 h incubation, the samples were read for fluorescence as above (T=3 h).
(§5) The Relative Fluorescence Unit values (RFU) were used to calculate the sample readings as follows: RFU(T=3h)-Control RFU(T=0)=Net RFU(T=3h)
(§6) The activity of caspase cascade activation was determined by the ratio of the net RFU value for N-(4-methoxyphenyl)-N,2-dimethylthieno[3,2-d]pyrimidin-4-amine or other test compound to that of control samples. The EC50 (nM) was determined by a sigmoidal dose-response calculation (Prism 3.0, GraphPad Software Inc.).

[5] = system: T-47D cells; experiment: Inhibition of cell proliferation (GI50, CellTiter-Glo) in T-47D cells; type: cell-based, human; conditions: T47D, 48 h incubation, read-out: GI50 in Cancer Cells GI50 (nM) T47D
Method: as §1, §2, §3

[6] = system: HT29 cells; experiment: Inhibition of cell proliferation (GI50, CellTiter-Glo) in HT29 cells; type: cell-based; conditions: HT29, 48 h incubation, read-out: GI50 in Cancer Cells GI50 (nM) HT29
Method: as §1, §2, §3

[7] = system: human lung cancer cell line H1299; experiment: Caspase cascade activation (DEVD-R110 fluorogenic substrate) in H1299 cells; type: cell-based; conditions: read-out: Caspase Activation Potency EC50 (nM) (24 h) H1299
Method: as §4, §5, §6

[8] = system: human hepatocellular carcinoma cell line SNU398; experiment: Caspase cascade activation (DEVD-R110 fluorogenic substrate) in SNU398 cells; type: cell-based
Method: as §4, §5, §6
Several compounds were also tested in other cancer cells lines (48 h assay), including human hepatocellular carcinoma cell line SNU398, human colon carcinoma cell line […], human B cell lymphoblastoid cell line Ramos, human Burkitt's lymphoma cell line Namalwa, and cervical cancer cell line HeLa, and the data are summarized in Table II.

[9] = system: human B cell lymphoblastoid cell line Ramos; experiment: Caspase cascade activation in Ramos cells; type: cell-based; conditions: 48 h, read-out: Caspase Activation Potency EC50 (nM) (48 h) Ramos
Method: (§7) Human breast cancer cell line T-47D, human lung cancer cell line H1299 and human hepatocellular carcinoma cell line SNU398 were grown according to media component mixtures designated by American Type Culture Collection+10% FCS (Invitrogen Corporation), in a 5% CO2-95% humidity incubator at 37° C. T-47D and H1299 cells were maintained at a cell density between 50 and 80% confluency at a cell density of 0.1 to 0.6×10^6 cells/mL. Cells were harvested at 600×g and resuspended at 0.65×10^6 cells/mL into appropriate media+10% FCS. […] Using a fluorescent plate reader (Model SPECTRAfluor Plus, Tecan), an initial reading (T=0) was made approximately 1-2 min after addition of the substrate solution, employing excitation at 485 nm and emission at 530 nm, to determine the background fluorescence of the control sample. After the 3 h incubation, the samples were read for fluorescence as above (T=3 h).
as §5
(§8) The activity of caspase cascade activation was determined by the ratio of the net RFU value for N-(4-methoxyphenyl)-N,2-dimethylthieno[3,2-d]pyrimidin-4-amine or other test compound to that of control samples. The EC50 (nM) was determined by a sigmoidal dose-response calculation (Prism 3.0, GraphPad Software Inc.). […]

[10] = system: human sarcoma cell line MES-SA; experiment: Inhibition of cell proliferation (GI50) in MES-SA cells; type: cell-based
Method: as §1, §2, §3
(§9) Several compounds were tested in other cancer cell lines, including human sarcoma cell line MES-SA and multi-drug resistant (MDR) human sarcoma cell line MES-SA/ADR, murine leukemia cell line P388 and multi-drug resistant (MDR) murine leukemia cell line P388ADR, and the data are summarized in Table IV.

[11] = system: human Burkitt's lymphoma cell line Namalwa; experiment: Caspase cascade activation in Namalwa cells; type: cell-based; conditions: Burkitts lymphoma cell, 48 h, read-out: Caspase Activation Potency EC50 (nM) (48 h) Namalwa
Method: as §7, §5, §8

[12] = system: multi-drug resistant (MDR) murine leukemia cell line P388ADR; experiment: Inhibition of cell proliferation (GI50) in P388/ADR cells; type: cell-based
Method: as §1, §2, §3, §9

[13] = system: multi-drug resistant (MDR) human sarcoma cell line MES-SA/ADR; experiment: Inhibition of cell proliferation (GI50) in MES-SA/ADR cells; type: cell-based
Method: as §1, §2, §3, §9

[14] = system: HCT116; experiment: Caspase cascade activation in HCT116 cells; type: cell-based; conditions: Homo sapiens, HCT-116; HCT116, 48 h; read-out: Caspase Activation Potency EC50 (nM) (48 h) HCT116
Method: as §7, §5, §8

[15] = system: cervical cancer cell line HeLa; experiment: Caspase cascade activation in HeLa cells; type: cell-based; conditions: Homo sapiens, 48 h, read-out: Caspase Activation Potency EC50 (nM) (48 h) HeLa
Method: as §7, §5, §8

[16] = system: human lymphoma cell line Raji; experiment: Caspase cascade activation in Raji cells; type: cell-based; conditions: 48 h, read-out: Caspase Activation Potency EC50 (nM) (48 h) Raji
Method: as §7, §5, §8

[17] = system: murine leukemia cell line P388; experiment: Inhibition of cell proliferation (GI50) in P388 cells; type: cell-based
Method: as §1, §2, §3, §9

[18] = Homo sapiens, SNU-398, SNU398, 24 h, read-out: Caspase Activation Potency EC50 (nM) (24 h) SNU398
[19] = Homo sapiens, SNU-398, SNU398, 48 h, read-out: Caspase Activation Potency EC50 (nM) (48 h) SNU398

Structure (SMILES) | GI50 ([1]; Homo sapiens) | GI50 ([2]; Homo sapiens, MDA-MB-435) | GI50 ([3]; Homo sapiens, NCI-H1299) | EC50 [4] | GI50 ([5]; Homo sapiens) | GI50 ([6]; Homo sapiens, HT-29) | EC50 ([7]; H1299, 24 h) | EC50 [8, 18] | EC50 [8, 19] | EC50 ([4]; Homo sapiens, T47D) | GI50 in Multi-Cancer Cells EC50 (nM) MES-SA [10] | GI50 in Multi-Cancer Cells EC50 (nM) P388/ADR [12] | EC50 ([7]; Homo sapiens, NCI-H1299, 24 h) | GI50 in Multi-Cancer Cells EC50 (nM) MES-SA/ADR [13] | EC50 [14] | EC50 [15] | GI50 in Multi-Cancer Cells EC50 (nM) P388 [17] | other results
COc1ccc(N(C)c2nc(C)nc3sccc23)cc1 [Example 2, N-(4-Methoxyphenyl)-N,2-dimethylthieno[2,3-d]pyrimidin-4-amine] | 5 nM | 2 nM | 9 nM | 9 nM | 5 nM | 26 nM | 15 nM | – | – | – | – | – | – | – | – | – | – | –
COc1ccc(N(C)c2nc(C)nc3scc(C)c23)cc1 [Example 4, N-(4-Methoxyphenyl)-N,2,5-trimethylthieno[2,3-d]pyrnmidin-4-amine] | – | – | – | 4 nM | – | – | 9 nM | – | – | – | – | – | – | – | – | – | – | GI50 [1]: 5 nM; GI50 [2]: 5 nM; GI50 [3]: 2 nM; EC50 ([8]; SNU398, 24 h, read-out: Caspase Activation Potency EC50 (nM) (24 h) SNU398): 4 nM; GI50 [5]: 5 nM; GI50 [6]: 5 nM
COc1ccc(N(C)c2nc(C)nc3sccc23)cc1.Cl [Example 5, N-(4-Methoxyphenyl)-N,2-dimethylthieno[2,3-d]pyrimidin-4-amine hydrochloride] | – | – | – | – | – | – | – | 12 nM | 9 nM | 8 nM | 3 nM | 4 nM | 14 nM | 5 nM | 27 nM | 8 nM | 7 nM | EC50 [9]: 27 nM; EC50 [11]: 20 nM; EC50 [16]: 20 nM
COc1ccc(N(C)c2nc(C)nc3sc(C)c(C)c23)cc1 [Example 24, N-(4-Methoxyphenyl)-N,2,5,6-tetramethylthieno[2,3-d]pyrimidin-4-amine] | – | – | – | – | – | – | – | 27 nM | 16 nM | 17 nM | – | – | 59 nM | – | 15 nM | 30 nM | – | –
COc1ccc(N(C)c2nc(C)nc3ccsc23)cc1 [Example 1, N-(4-Methoxyphenyl)-N,2-dimethylthieno[3,2-d]pyrimidin-4-amine] | – | – | – | – | – | – | – | 28 nM | – | 14 nM | 12 nM | 16 nM | 24 nM | 13 nM | – | – | 15 nM | –
COc1ccc(N(C)c2ncnc3ccsc23)cc1 [Example 6, N-(4-Methoxyphenyl)-N-methylthieno[3,2-d]pyrimidin-4-amine] | 40 nM | 16 nM | 38 nM | – | 4 nM | 40 nM | – | 123 nM | – | 45 nM | 58 nM | 105 nM | 56 nM | 100 nM | – | – | 74 nM | –
